Literature values, collected in US11426379B2, “Combination of local and systemic therapies for enhanced treatment of dermatologic conditions” (The Rockefeller University, priority 2017, dated 2022).

Test system: rabbit skin
Conditions: intradermal injection, presence of light, reversible with beta-carotene

For O=C1OC2(c3cc(I)c(O)c(I)c3Oc3c2cc(I)c(O)c3I)c2c(Cl)c(Cl)c(Cl)c(Cl)c21 [rose bengal, 4,5,6,7-tetrachloro-2′,4′,5′,7′-tetraiodofluorescein], which “polymorphonuclear leukocyte accumulation, histamine release and erythema” value is on record?
Its value is “polymorphonuclear leukocyte accumulation and histamine release with accompanying increased erythema”.
